For 31 molecules, IC50 results are on record in patent publication US9586951B2 (FUJIFILM Corporation, priority 2013, dated 2017).

T1 sequence (Q13315 whole entry): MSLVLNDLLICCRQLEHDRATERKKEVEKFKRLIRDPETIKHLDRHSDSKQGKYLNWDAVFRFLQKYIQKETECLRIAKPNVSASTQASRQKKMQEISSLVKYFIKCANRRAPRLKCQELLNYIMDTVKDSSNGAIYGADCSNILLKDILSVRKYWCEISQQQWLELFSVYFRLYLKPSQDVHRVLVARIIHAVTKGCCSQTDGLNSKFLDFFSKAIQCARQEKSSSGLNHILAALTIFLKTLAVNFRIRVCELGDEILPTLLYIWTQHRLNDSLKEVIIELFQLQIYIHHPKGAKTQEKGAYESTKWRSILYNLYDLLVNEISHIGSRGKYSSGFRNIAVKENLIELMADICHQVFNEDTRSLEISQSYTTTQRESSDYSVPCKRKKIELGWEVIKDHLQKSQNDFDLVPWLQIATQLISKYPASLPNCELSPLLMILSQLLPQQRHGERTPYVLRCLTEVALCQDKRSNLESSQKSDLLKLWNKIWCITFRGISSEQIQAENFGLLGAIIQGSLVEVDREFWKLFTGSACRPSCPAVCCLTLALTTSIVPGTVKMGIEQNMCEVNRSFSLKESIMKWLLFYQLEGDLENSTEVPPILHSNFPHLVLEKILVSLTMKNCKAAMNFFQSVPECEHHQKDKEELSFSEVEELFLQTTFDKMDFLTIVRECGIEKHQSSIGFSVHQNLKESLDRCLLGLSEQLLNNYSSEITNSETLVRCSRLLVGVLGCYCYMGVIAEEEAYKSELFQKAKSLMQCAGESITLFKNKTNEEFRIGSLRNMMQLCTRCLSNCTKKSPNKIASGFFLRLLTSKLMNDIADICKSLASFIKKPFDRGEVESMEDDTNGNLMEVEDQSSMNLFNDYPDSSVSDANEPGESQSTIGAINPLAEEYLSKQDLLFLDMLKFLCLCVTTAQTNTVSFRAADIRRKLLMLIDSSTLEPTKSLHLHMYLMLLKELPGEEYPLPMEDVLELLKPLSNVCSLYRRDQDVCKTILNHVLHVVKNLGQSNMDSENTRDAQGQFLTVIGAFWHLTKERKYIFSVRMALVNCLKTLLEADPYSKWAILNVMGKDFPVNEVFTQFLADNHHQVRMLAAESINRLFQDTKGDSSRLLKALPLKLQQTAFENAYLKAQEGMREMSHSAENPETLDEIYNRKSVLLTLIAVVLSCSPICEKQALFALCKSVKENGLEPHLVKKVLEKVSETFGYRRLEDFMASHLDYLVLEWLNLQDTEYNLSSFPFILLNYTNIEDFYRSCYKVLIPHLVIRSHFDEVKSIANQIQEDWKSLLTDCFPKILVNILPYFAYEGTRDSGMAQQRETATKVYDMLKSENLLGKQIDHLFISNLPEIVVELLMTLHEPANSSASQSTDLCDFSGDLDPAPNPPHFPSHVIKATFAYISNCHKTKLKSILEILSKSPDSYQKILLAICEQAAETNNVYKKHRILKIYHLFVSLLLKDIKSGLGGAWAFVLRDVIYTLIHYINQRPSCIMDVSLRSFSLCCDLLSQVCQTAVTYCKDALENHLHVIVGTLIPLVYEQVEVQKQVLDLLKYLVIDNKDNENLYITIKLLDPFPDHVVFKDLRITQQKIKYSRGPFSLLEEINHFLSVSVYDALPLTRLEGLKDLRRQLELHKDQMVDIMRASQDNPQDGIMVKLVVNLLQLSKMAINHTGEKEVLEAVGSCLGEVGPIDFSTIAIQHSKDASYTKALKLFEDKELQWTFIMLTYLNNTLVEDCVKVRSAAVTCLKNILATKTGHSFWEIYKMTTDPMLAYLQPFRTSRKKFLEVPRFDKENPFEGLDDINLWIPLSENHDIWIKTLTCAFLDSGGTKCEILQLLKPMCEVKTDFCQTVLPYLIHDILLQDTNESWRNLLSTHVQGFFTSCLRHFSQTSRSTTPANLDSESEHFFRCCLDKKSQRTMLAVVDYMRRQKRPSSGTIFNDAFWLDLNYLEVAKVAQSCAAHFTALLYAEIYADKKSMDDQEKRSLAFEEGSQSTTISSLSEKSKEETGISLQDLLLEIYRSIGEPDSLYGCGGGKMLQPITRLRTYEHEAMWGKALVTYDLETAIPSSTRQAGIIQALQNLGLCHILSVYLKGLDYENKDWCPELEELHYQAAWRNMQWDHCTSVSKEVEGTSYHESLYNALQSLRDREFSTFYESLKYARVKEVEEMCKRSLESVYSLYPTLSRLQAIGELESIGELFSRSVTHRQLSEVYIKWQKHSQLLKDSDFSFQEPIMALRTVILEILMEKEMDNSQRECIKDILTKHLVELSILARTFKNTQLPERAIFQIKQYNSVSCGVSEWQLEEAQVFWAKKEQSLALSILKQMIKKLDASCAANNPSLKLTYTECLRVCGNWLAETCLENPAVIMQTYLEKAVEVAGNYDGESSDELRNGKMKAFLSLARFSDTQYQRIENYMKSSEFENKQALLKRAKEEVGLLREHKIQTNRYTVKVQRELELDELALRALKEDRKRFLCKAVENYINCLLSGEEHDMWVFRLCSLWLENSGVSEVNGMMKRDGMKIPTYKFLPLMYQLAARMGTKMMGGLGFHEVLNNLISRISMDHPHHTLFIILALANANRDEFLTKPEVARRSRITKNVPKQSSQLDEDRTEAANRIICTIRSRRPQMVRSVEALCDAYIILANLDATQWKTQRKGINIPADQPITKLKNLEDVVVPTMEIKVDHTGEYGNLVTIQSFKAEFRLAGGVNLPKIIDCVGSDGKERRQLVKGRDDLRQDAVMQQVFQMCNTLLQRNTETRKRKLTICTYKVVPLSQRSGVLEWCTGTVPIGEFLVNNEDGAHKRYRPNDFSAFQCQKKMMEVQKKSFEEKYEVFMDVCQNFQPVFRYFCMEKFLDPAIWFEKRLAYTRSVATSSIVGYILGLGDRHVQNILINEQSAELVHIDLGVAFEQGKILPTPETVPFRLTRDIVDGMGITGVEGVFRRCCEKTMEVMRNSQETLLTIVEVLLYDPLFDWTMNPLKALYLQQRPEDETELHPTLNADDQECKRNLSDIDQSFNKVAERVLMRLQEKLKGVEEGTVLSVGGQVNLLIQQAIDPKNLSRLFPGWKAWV

This experiment concerns the target T1, ATM (Homo sapiens, UniProt Q13315).
T1 construct: detecting phosphorylation of Chk2 in a human non-small cell lung cancer cell line NCI-H460 (ATCC company); host or cells: NCI-H460 human non-small cell lung cancer cells
In words: ATM inhibition test (phosphorylation of Chk2 generated by ionizing radiation, AlphaScreen SureFire). The format is cell-based. To be noted: phosphorylated Chk2 in NCI-H460 cells, ionizing radiation 8Gy, 1 hour after test compound treatment; read-out: ATM inhibitory activity. The procedure, abridged:
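Phosphorylated Chk2 read by AlphaScreen SureFire in human non-small cell lung cancer NCI-H460 cells, 1 hour after 8Gy ionizing radiation at 37° C. Compound added 1 hour before irradiation. Percent inhibition normalised between irradiated and non-irradiated drug-untreated signals.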
In general terms: Bead proximity is the source of the signal in Alpha formats.
As for `COc1cnccc1CNc1ccc2c(c1)Sc1cccc(-c3cc(N4CCOCC4)cc(=O)[nH]3)c1O2` [Example 4-4-23, 6-(8-(((3-Methoxypyridin-4-yl)methyl)amino)phenoxathiin-4-yl)-4-morpholino pyridin-2(1H)-one], the IC50 was 100 to 500 nM. Then `O=c1cc(N2CCOCC2)cc(-c2cccc3c2Oc2ccc(NCc4ncccn4)cc2C3)[nH]1` [Example 2-3-4, 4-Morpholino-6-(7-((pyrimidin-2-ylmethyl)amino)-9H-xanthen-4-yl) pyridin-2(1H)-one], with 500 to 2000 nM; and `CCOCC(Nc1ccc2c(c1)Sc1cccc(-c3cc(N4CCOCC4)cc(=O)[nH]3)c1S2)c1ccc(C)cn1` (stereo not shown) [Example 1-12-101, 6-(7-((2-Ethoxy-1-(5-methylpyridin-2-yl)ethyl)amino)thianthren-1-yl)-4-morpholino pyridin-2(1H)-one], with 100 to 500 nM. Then `Cc1nccnc1CNc1ccc2c(c1)Cc1cccc(-c3cc(N4CCOCC4)cc(=O)[nH]3)c1O2` [Example 2-14-75, 6-(7-(((3-Methylpyrazin-2-yl)methyl)amino)-9H-xanthen-4-yl)-4-morpholino pyridin-2(1H)-one], with 100 to 500 nM. Consider `CN1CCN(C(=O)CNc2ccc3c(c2)Sc2cccc(-c4cc(N5CCOCC5)cc(=O)[nH]4)c2S3)CC1` [Example 1-18-3], for which the IC50 lay within 500 to 2000 nM. On to `O=c1cc(N2CCOCC2)cc(-c2cccc3c2Oc2ccc(NCc4cnc5c(c4)OCCO5)cc2C3)[nH]1` [Example 2-2-29, 6-(7-(((2,3-Dihydro-[1,4]dioxino[2,3-b]pyridin-7-yl)methyl)amino)-9H-xanthen-4-yl)-4-morpholino pyridin-2 (1H)-one], for which the IC50 is less than 100 nM. With `O=C1CCCN1c1cncc(CNc2ccc3c(c2)Cc2cccc(-c4cc(N5CCOCC5)cc(=O)[nH]4)c2O3)c1` [Example 2-2-67, 4-Morpholino-6-(7-(((5-(2-oxopyrrolidin-1-yl)pyridin-3-yl)methyl)amino)-9H-xanthen-4-yl)pyridin-2(1H)-one] the figure was 100 to 500 nM; with `CC(Nc1ccc2c(c1)Sc1cccc(-c3cc(N4CCOCC4)cc(=O)[nH]3)c1S2)[C@H](C)N1CCOCC1` (stereo partly shown) [Example 1-21-5, 6-(7-(((3 S)-3-morpholinobutan-2-yl)amino)thianthren-1-yl)-4-morpholinopyridin-2(1H)-one], 100 to 500 nM; with `COc1cncc(CNc2ccc3c(c2)Cc2cccc(-c4cc(N5CCOCC5)cc(=O)[nH]4)c2S3)c1` [Example 3-8-9, 6-(7-(((5-Methoxypyridin-3-yl)methyl)amino)-9H-thioxanthen-4-yl)-4-morpholino pyridin-2 (1H)-one], 100 to 500 nM. Regarding `Cn1cc(CNc2ccc3c(c2)Cc2cccc(-c4cc(N5CCOCC5)cc(=O)[nH]4)c2O3)ccc1=O` [Example 2-2-45, 1-Methyl-5-(((5-(4-morpholino-6-oxo-1,6-dihydropyridin-2-yl)-9H-xanthen-2-yl)amino)methyl) pyridin-2(1H)-one], the IC50 fell in the range of 500 to 2000 nM. Then `O=c1cc(N2CCOCC2)cc(-c2cccc3c2Oc2ccc(NCc4cscn4)cc2C3)[nH]1` [Example 2-14-36, 4-Morpholino-6-(7-((thiazol-4-ylmethyl)amino)-9H-xanthen-4-yl) pyridin-2(1H)-one], with 100 to 500 nM; and `O=c1cc(N2CCOCC2)cc(-c2cccc3c2Oc2ccc(NCc4cnccc4Cl)cc2C3)[nH]1` [Example 2-14-4, 6-(7-(((4-Chloropyridin-3-yl)methyl)amino)-9H-xanthen-4-yl)-4-morpholino pyridin-2(1H)-one], with 100 to 500 nM. With `CC1CCCCN1CC(CO)Nc1ccc2c(c1)Sc1cccc(-c3cc(N4CCOCC4)cc(=O)[nH]3)c1S2` (single isomer, unassigned) [Example 1-37-6, 6-(7-((1-Hydroxy-3-(2-methylpiperidin-1-yl)propan-2-yl)amino)thianthren-1-yl)-4-morpholino pyridin-2(1H)-one] the figure was 100 to 500 nM; with `CNCC(Nc1ccc2c(c1)Sc1cccc(-c3cc(N4CCOCC4)cc(=O)[nH]3)c1S2)c1cccc(C)n1` (single isomer, unassigned) [Example 1-19-4-2, 6-(7-((2-(Methylamino)-1-(6-methylpyridin-2-yl)ethyl)amino)thianthren-1-yl)-4-morpholinopyridin-2(1H)-one], 500 to 2000 nM. With `CCOC(=O)CNc1ccc2c(c1)Cc1cccc(-c3cc(N4CCOCC4)cc(=O)[nH]3)c1O2` [Example 2-14-71, Ethyl 2-((5-(4-morpholino-6-oxo-1,6-dihydropyridin-2-yl)-9H-xanthen-2-yl)amino) acetate] the figure was 100 to 500 nM. In the case of `CC1CC(Nc2ccc3c(c2)Cc2cccc(-c4cc(N5CCOCC5)cc(=O)[nH]4)c2O3)CCN1C(=O)OC(C)(C)C` (stereo not shown) [Example 2-14-84, tert-Butyl 2-methyl-4-((5-(4-morpholino-6-oxo-1,6-dihydropyridin-2-yl)-9H-xanthen-2-yl)amino) piperidine-1-carboxylate], the IC50 fell in the range of 500 to 2000 nM. On to `O=c1cc(N2CCOCC2)cc(-c2cccc3c2Sc2ccc(NC4CCN(Cc5ccccn5)CC4)cc2S3)[nH]1` [Example 1-24-19, 4-Morpholino-6-(7-((1-(pyridin-2-ylmethyl)piperidin-4-yl)amino)thianthren-1-yl)pyridin-2 (1H)-one], for which the IC50 lay in the range of 100 to 500 nM. As to `Cc1csc(CNc2ccc3c(c2)Cc2cccc(-c4cc(N5CCOCC5)cc(=O)[nH]4)c2O3)c1` [Example 2-14-41, 6-(7-(((4-Methylthiophen-2-yl)methyl)amino)-9H-xanthen-4-yl)-4-morpholino pyridin-2(1H)-one], the IC50 lay in the range of 100 to 500 nM. With `COc1cncc(CNc2ccc3c(c2)Cc2cc(C)cc(-c4cc(N5CCOCC5)cc(=O)[nH]4)c2O3)c1` [Example 2-49-2, 6-(7-(((5-Methoxypyridin-3-yl)methyl)amino)-2-methyl-9H-xanthen-4-yl)-4-morpholinopyridin-2(1H)-one] the figure was 100 to 500 nM.

As for `Cc1cnc(C(CC(C)(C)O)Nc2ccc3c(c2)Sc2cccc(-c4cc(N5CCOCC5)cc(=O)[nH]4)c2S3)cn1` (stereo not shown) [Example 1-12-117, 6-(7-((3-Hydroxy-3-methyl-1-(5-methylpyrazin-2-yl)butyl)amino)thianthren-1-yl)-4-morpholino pyridin-2(1H)-one], the IC50 was 100 to 500 nM. Then `CC(Nc1ccc2c(c1)Sc1cccc(-c3cc(N4CCOCC4)cc(=O)[nH]3)c1S2)c1ccnc(Cl)n1` (stereo not shown) [Example 1-12-81, 6-(7-((1-(2-Chloropyrimidin-4-yl)ethyl)amino)thianthren-1-yl)-4-morpholino pyridin-2 (1H)-one], with 100 to 500 nM. With `Cc1ccncc1CNc1ccc2c(c1)Sc1cccc(-c3cc(N4CCOCC4)cc(=O)[nH]3)c1O2` [Example 4-4-19, 6-(8-(((4-Methylpyridin-3-yl)methyl)amino)phenoxathiin-4-yl)-4-morpholino pyridin-2(1H)-one] the figure was 100 to 500 nM; with `Cc1ccc(CNc2ccc3c(c2)Cc2cccc(-c4cc(N5CCOCC5)cc(=O)[nH]4)c2O3)cn1` [Example 2-2-2, 6-(7-(((6-Methylpyridin-3-yl)methyl)amino)-9H-xanthen-4-yl)-4-morpholino pyridin-2 (1H)-one], less than 100 nM.

`Cc1cnc(C(CCN(C)CCO)Nc2ccc3c(c2)Sc2cccc(-c4cc(N5CCOCC5)cc(=O)[nH]4)c2S3)cn1` (single isomer, unassigned) [Example 10-4-2, 6-(7-((3-((2-Hydroxyethyl)(methyl)amino)-1-(5-methylpyrazin-2-yl)propyl)amino)thianthren-1-yl)-4-morpholinopyridin-2(1H)-one]: the IC50 fell in the range of 100 to 500 nM. With `Cc1cncc(C(CO)Nc2ccc3c(c2)Sc2cccc(-c4cc(N5CCOCC5)cc(=O)[nH]4)c2S3)c1` (stereo not shown) [Example 1-12-66, 6-(7-((2-Hydroxy-1-(5-methylpyridin-3-yl)ethyl)amino)thianthren-1-yl)-4-morpholino pyridin-2(1H)-one] the figure was 100 to 500 nM; with `COc1cncc(CNc2ccc3c(c2)Cc2ccnc(-c4cc(N5CCOCC5)cc(=O)[nH]4)c2O3)c1` [Example 2-41-1, 6-(7-(((5-Methoxypyridin-3-yl)methyl)amino)-5H-chromeno[2,3-c]pyridin-1-yl)-4-morpholinopyridin-2(1H)-one], 100 to 500 nM; with `CC(CN1CCO[C@@H](C)C1)Nc1ccc2c(c1)Sc1cccc(-c3cc(N4CCOCC4)cc(=O)[nH]3)c1S2` (stereo partly drawn) [Example 1-43-8, 6-(7-((4-((S)-2-Methylmorpholino)propan-2-yl)amino)thianthren-1-yl)-4-morpholino pyridin-2(1H)-one], 500 to 2000 nM.

For `CN(C)C1CCN(c2cccc(CNc3ccc4c(c3)Sc3cccc(-c5cc(N6CCOCC6)cc(=O)[nH]5)c3S4)n2)C1` (stereo not shown) [Example 1-12-35, 6-(7-(((6-(3-(Dimethylamino)pyrrolidin-1-yl)pyridin-2-yl)methyl)amino)thianthren-1-yl)-4-morpholino pyridin-2 (1H)-one], the IC50 is 100 to 500 nM. For `CCCCC(Nc1ccc2c(c1)Sc1cccc(-c3cc(N4CCOCC4)cc(=O)[nH]3)c1S2)[C@H](C)N` (stereo partly drawn) [Example 1-20-3, 6-(7-(((2S)-2-Aminoheptan-3-yl)amino)thianthren-1-yl)-4-morpholino pyridin-2(1H)-one], the IC50 lay within 100 to 500 nM. Then `CC(CN1CCOCC1C)Nc1ccc2c(c1)Sc1cccc(-c3cc(N4CCOCC4)cc(=O)[nH]3)c1S2` (stereo not shown) [Example 1-13-10, 6-(7-((1-(3-Methylmorpholino)propan-2-yl)amino)thianthren-1-yl)-4-morpholino pyridin-2(1H)-one], with 100 to 500 nM; and `O=c1cc(N2CCOCC2)cc(-c2cccc3c2Sc2ccc(NCc4cscn4)cc2S3)[nH]1` [Example 1-12-53, 4-Morpholino-6-(7-((thiazol-4-ylmethyl)amino)thianthren-1-yl)pyridin-2 (1H)-one], with 100 to 500 nM.
